# In paper PMC10600239, “Selective MCL-1 inhibitor ABBV-467 is efficacious in tumor models but is associated with cardiac troponin increases in patients” (Communications Medicine, 2023):
# Legend:
# H929 cells = assay: Caspase-3/7 activation and viability (DRAQ7) over time by Incucyte; assay type: cell-based, human
# Protocol: Fig. 2 Apoptosis induced by ABBV-467 is mechanism based and induces cell death in MCL-1-dependent cell lines after short target engagement periods. H929 cells were treated with ABBV-467 in the presence or absence of the pan-caspase inhibitor z-VAD-fmk (50 µM) and the impact on caspase-3/7 activation (a), mitochondrial membrane potential (ΔΨm; b), and apoptosis (c) determined. Alternatively, BAK-deficient SKBR3 cells were treated with ABBV-467 for 24 h and the impact on cell viability compared with the parental cell line, determined by CellTiter-Glo. Inset depicts a western blot of BAK and BAX expression in SKBR3 cell variants using GAPDH as a loading control. Each of the 3 proteins were probed on separate blots (d). Data in (a–d) are presented as the mean ± standard error of the mean. H929 and AMO-1 cells were treated with ABBV-467 at the indicated concentrations and the impact on caspase-3/7 activation and viability (DRAQ7-positive) cells determined over time by Incucyte®. Data are presented as the mean ± standard deviation (e). H929 or AMO-1 cells were cultured in media containing 10% human serum and treated with ABBV-467 for the indicated contact times. Cells were subsequently washed 3 times with drug-free media and incubated in drug-free media for the remainder of the 24-h treatment period at 37 °C before cell viability was determined by CellTiter-Glo. Mean EC50 and EC90 values were determined from the resulting dose-response curves from at least 3 independent experiments, each assessed in quadruplicate, and depict the mean ± standard error of the mean. Presented ABBV-467 dose-response curves in H929 and AMO-1 cells were compiled from at least 3 independent experiments (f).
# SU-DHL-1 cells = assay: Cell viability of BAK-deficient and parental SU-DHL-1 cells (CellTiter-Glo); assay type: cell-based; conditions: SU-DHL-1, 24 hr
# Protocol: Supplementary Fig . S4: BAK is required for ABBV-467 ac tiv ity in S U-DHL-1 cells. BAK-deficient SU- D HL -1
# cells were treated with ABBV-4 67 fo r 24 hr at the indicated concentrations and the impact on cell
# viability compared to the parental cell line determined by CellTiter- G lo . N=3 .
# (1 picture or pasted object on this page, not shown here)
structure (smiles),measurement,setting,value
Cc1c(Cl)c2c(Cl)c(C)c1-c1c(-c3ccc(F)cc3)sc3ncnc(c13)O[C@@H](C(=O)O)Cc1cc(ccc1OCc1ccnc(-c3ccc(OC[C@H]4COCCO4)cc3)n1)OC[C@@H](CN1CCN(C)CC1)O2 [ABBV-467],Caspase-3/-7 Activation,"H929 cells; ABBV-467 0.1 nM, 11 hours",408.8
same,Caspase-3/-7 Activation,"H929 cells; ABBV-467 0.1 nM, 12 hours",435.203
same,Caspase-3/-7 Activation,"H929 cells; ABBV-467 0.1 nM, 13 hours",463.242
same,Caspase-3/-7 Activation,"H929 cells; ABBV-467 0.1 nM, 14 hours",524.814
same,Caspase-3/-7 Activation,"H929 cells; ABBV-467 1 nM, 0 hours",207.355
same,Caspase-3/-7 Activation,"H929 cells; ABBV-467 1 nM, 1 hours",234.094
same,Caspase-3/-7 Activation,"H929 cells; ABBV-467 1 nM, 2 hours",278.959
same,Caspase-3/-7 Activation,"H929 cells; ABBV-467 1 nM, 3 hours",292.278
same,Caspase-3/-7 Activation,"H929 cells; ABBV-467 1 nM, 4 hours",394.898
same,Caspase-3/-7 Activation,"H929 cells; ABBV-467 1 nM, 5 hours",570.705
same,Caspase-3/-7 Activation,"H929 cells; ABBV-467 1 nM, 6 hours",716.626
same,Caspase-3/-7 Activation,"H929 cells; ABBV-467 1 nM, 7 hours",887.617
same,Caspase-3/-7 Activation,"H929 cells; ABBV-467 1 nM, 8 hours",1099.54
same,Caspase-3/-7 Activation,"H929 cells; ABBV-467 1 nM, 9 hours",1287.07
same,Caspase-3/-7 Activation,"H929 cells; ABBV-467 1 nM, 10 hours",1419.14
same,Caspase-3/-7 Activation,"H929 cells; ABBV-467 1 nM, 11 hours",1610.17
same,Caspase-3/-7 Activation,"H929 cells; ABBV-467 1 nM, 12 hours",1722.67
same,Caspase-3/-7 Activation,"H929 cells; ABBV-467 1 nM, 13 hours",1826.71
same,Caspase-3/-7 Activation,"H929 cells; ABBV-467 1 nM, 14 hours",1859.69
same,Caspase-3/-7 Activation,"H929 cells; ABBV-467 10 nM, 0 hours",233.175
same,Caspase-3/-7 Activation,"H929 cells; ABBV-467 10 nM, 1 hours",264.944
same,Caspase-3/-7 Activation,"H929 cells; ABBV-467 10 nM, 2 hours",553.515
same,Caspase-3/-7 Activation,"H929 cells; ABBV-467 10 nM, 3 hours",945.842
same,Caspase-3/-7 Activation,"H929 cells; ABBV-467 10 nM, 4 hours",1332.17
same,Caspase-3/-7 Activation,"H929 cells; ABBV-467 10 nM, 5 hours",1650.46
same,Caspase-3/-7 Activation,"H929 cells; ABBV-467 10 nM, 6 hours",1813.36
same,Caspase-3/-7 Activation,"H929 cells; ABBV-467 10 nM, 7 hours",2014.88
same,Caspase-3/-7 Activation,"H929 cells; ABBV-467 10 nM, 8 hours",2144.69
same,Caspase-3/-7 Activation,"H929 cells; ABBV-467 10 nM, 9 hours",2203.21
same,Caspase-3/-7 Activation,"H929 cells; ABBV-467 10 nM, 10 hours",2258.19
same,Caspase-3/-7 Activation,"H929 cells; ABBV-467 10 nM, 11 hours",2283.58
same,Caspase-3/-7 Activation,"H929 cells; ABBV-467 10 nM, 12 hours",2310.22
same,Caspase-3/-7 Activation,"H929 cells; ABBV-467 10 nM, 13 hours",2302.82
same,Caspase-3/-7 Activation,"H929 cells; ABBV-467 10 nM, 14 hours",2302.28
same,Caspase-3/-7 Activation,"H929 cells; ABBV-467 100 nM, 0 hours",208.608
same,Caspase-3/-7 Activation,"H929 cells; ABBV-467 100 nM, 1 hours",451.845
same,Caspase-3/-7 Activation,"H929 cells; ABBV-467 100 nM, 2 hours",1550.74
same,Caspase-3/-7 Activation,"H929 cells; ABBV-467 100 nM, 3 hours",2054.45
same,Caspase-3/-7 Activation,"H929 cells; ABBV-467 100 nM, 4 hours",2191.43
same,Caspase-3/-7 Activation,"H929 cells; ABBV-467 100 nM, 5 hours",2357.93
same,Caspase-3/-7 Activation,"H929 cells; ABBV-467 100 nM, 6 hours",2394.62
same,Caspase-3/-7 Activation,"H929 cells; ABBV-467 100 nM, 7 hours",2491.07
same,Caspase-3/-7 Activation,"H929 cells; ABBV-467 100 nM, 8 hours",2431.58
same,Caspase-3/-7 Activation,"H929 cells; ABBV-467 100 nM, 9 hours",2418.59
same,Caspase-3/-7 Activation,"H929 cells; ABBV-467 100 nM, 10 hours",2357.71
same,Caspase-3/-7 Activation,"H929 cells; ABBV-467 100 nM, 11 hours",2329.52
same,Caspase-3/-7 Activation,"H929 cells; ABBV-467 100 nM, 12 hours",2294.27
same,Caspase-3/-7 Activation,"H929 cells; ABBV-467 100 nM, 13 hours",2277.8
same,Caspase-3/-7 Activation,"H929 cells; ABBV-467 100 nM, 14 hours",2211.71
same,Caspase-3/-7 Activation,"H929 cells; ABBV-467 100 nM, 15 hours",2210.67
same,effect of BAK deletion on activity,SU-DHL-1 cells,completely inhibited
